Assay results taken from US12180193B2, “Accelerating fibrosarcoma protein degrading compounds and associated methods of use” (Arvinas Operations, Inc., priority 2020, dated 2024).

Assays:
[1] = molecular target: T1, BRAF G466V (Homo sapiens, UniProt P15056, G466V); experiment: Cellular assay of target protein degradation, T-Rex 293 cells stably transfected with HA-BRAF G466V (HA immunofluorescence, high content imaging); format: cell-based; conditions: T-Rex 293 HA-BRAF G466V; for DC50: half maximal degradation, read-out: BRaf G466V DC50; for Dmax: maximum degradation observed
T1 construct: expressed in transfected cells
Outline: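 Dose range spans 30 nM to 3 pM (0.1% DMSO) over 24 hours at 37° C, in cells induced with 0.75 ng/mL doxycycline. Fixed cells are probed with anti-HA antibody overnight at 4° C, then imaged; half-maximal degradation and maximum degradation are derived.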

[2] = molecular target: T2, BRAF V600E (Homo sapiens, UniProt P15056, V600E); experiment: Cellular assay of target protein degradation, T-Rex 293 cells stably transfected with HA-BRAF_V600E (HA immunofluorescence, high content imaging); format: cell-based; conditions: T-Rex 293 HA-BRAF V600E; for DC50: half maximal degradation, read-out: BRaf V600E DC50; for Dmax: maximum degradation observed
T2 construct: expressed in transfected cells
Outline: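 Degradation of the HA-tagged construct is measured after 24 h treatment at 37 °C across 1 μM to 0.1 nM in 0.1% DMSO, in doxycycline-induced (1 ng/mL) cells. DC50 and Dmax come from HA fluorescence imaging.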

T2 sequence (P15056 whole entry V600E): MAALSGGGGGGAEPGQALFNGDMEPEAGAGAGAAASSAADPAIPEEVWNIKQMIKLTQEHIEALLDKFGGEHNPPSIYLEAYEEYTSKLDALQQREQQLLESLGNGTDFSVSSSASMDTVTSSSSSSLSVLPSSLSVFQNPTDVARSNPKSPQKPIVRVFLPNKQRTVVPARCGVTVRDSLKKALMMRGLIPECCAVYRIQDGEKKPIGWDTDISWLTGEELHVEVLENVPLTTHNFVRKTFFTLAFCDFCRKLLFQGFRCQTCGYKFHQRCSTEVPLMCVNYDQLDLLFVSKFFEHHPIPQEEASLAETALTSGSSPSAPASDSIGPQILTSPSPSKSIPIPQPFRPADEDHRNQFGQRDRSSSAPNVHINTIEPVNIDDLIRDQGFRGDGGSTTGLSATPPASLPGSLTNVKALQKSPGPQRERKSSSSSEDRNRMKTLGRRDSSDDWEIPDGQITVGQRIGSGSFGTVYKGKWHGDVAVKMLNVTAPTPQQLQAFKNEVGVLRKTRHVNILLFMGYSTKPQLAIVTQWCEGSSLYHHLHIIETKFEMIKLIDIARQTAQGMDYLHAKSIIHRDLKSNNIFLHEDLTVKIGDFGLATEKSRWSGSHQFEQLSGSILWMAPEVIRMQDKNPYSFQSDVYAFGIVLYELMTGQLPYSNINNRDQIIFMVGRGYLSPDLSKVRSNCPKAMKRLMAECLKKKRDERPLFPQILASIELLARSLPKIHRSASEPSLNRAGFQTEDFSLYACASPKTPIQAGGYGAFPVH
T1 sequence (P15056 whole entry G466V): as the sequence (P15056 whole entry V600E) above, with G466V, E600V counted along it

DC50 [1] [nM]	DC50 [2] [nM]	Dmax [2] [%]	Dmax [1] [%]	SMILES
1 to 10	5 to 50	< 35	> 70	O=C1CCC(N2Cc3ccc(C4CCN(CC5CCN(c6ccc(-c7cnc8[nH]cc(C(=O)c9c(F)ccc(NS(=O)(=O)N%10CC[C@@H](F)C%10)c9F)c8c7)cc6)CC5)CC4)cc3C2=O)C(=O)N1 (stereo partly drawn) [Compound 185, (3R)-N-[3-(5-{4-[4-({4-[2-(2,6-dioxopiperidin-3-yl)-3-oxo-2,3-dihydro-1H-isoindol-5-yl]piperidin-1-yl}methyl)piperidin-1-yl]phenyl}-1H-pyrrolo[2,3-b]pyridine-3-carbonyl)-2,4-difluorophenyl]-3-fluoropyrrolidine-1-sulfonamide]
1 to 10	< 5	35 to 70	> 70	O=C1CCC(N2Cc3cc(C4CCN(CC5CCN(c6ccc(-c7cnc8[nH]cc(C(=O)c9c(F)ccc(NS(=O)(=O)N%10CCC(F)(F)C%10)c9F)c8c7)cc6)CC5)CC4)ccc3C2=O)C(=O)N1 (stereo not shown) [Compound 190, N-[3-(5-{4-[4-({4-[2-(2,6-dioxopiperidin-3-yl)-1-oxo-2,3-dihydro-1H-isoindol-5-yl]piperidin-1-yl}methyl)piperidin-1-yl]phenyl}-1H-pyrrolo[2,3-b]pyridine-3-carbonyl)-2,4-difluorophenyl]-3,3-difluoropyrrolidine-1-sulfonamide]
1 to 10	5 to 50	35 to 70	> 70	O=C1CCC(N2Cc3cc(N4CC(CN5CCN(Cc6ccc(-c7cnc8[nH]cc(C(=O)c9c(F)ccc(NS(=O)(=O)N%10CC[C@@H](F)C%10)c9F)c8c7)cc6)CC5)C4)ccc3C2=O)C(=O)N1 (stereo partly drawn) [Compound 192, (3R)-N-{3-[5-(4-{[4-({1-[2-(2,6-dioxopiperidin-3-yl)-1-oxo-2,3-dihydro-1H-isoindol-5-yl]azetidin-3-yl}methyl)piperazin-1-yl]methyl}phenyl)-1H-pyrrolo[2,3-b]pyridine-3-carbonyl]-2,4-difluorophenyl}-3-fluoropyrrolidine-1-sulfonamide]
1 to 10	50 to 500	35 to 70	35 to 70	O=C1CCC(N2Cc3cc(N4CC(CN5CCN(Cc6ncc(-c7cnc8[nH]cc(C(=O)c9c(F)ccc(NS(=O)(=O)N%10CC[C@@H](F)C%10)c9F)c8c7)cn6)CC5)C4)ccc3C2=O)C(=O)N1 (stereo partly drawn) [Compound 193, (3R)-N-{3-[5-(2-{[4-({1-[2-(2,6-dioxopiperidin-3-yl)-1-oxo-2,3-dihydro-1H-isoindol-5-yl]azetidin-3-yl}methyl)piperazin-1-yl]methyl}pyrimidin-5-yl)-1H-pyrrolo[2,3-b]pyridine-3-carbonyl]-2,4-difluorophenyl}-3-fluoropyrrolidine-1-sulfonamide]
1 to 10	50 to 500	35 to 70	> 70	O=C1CCC(N2Cc3cc(N4CC(CN5CCC(Cc6ncc(-c7cnc8[nH]cc(C(=O)c9c(F)ccc(NS(=O)(=O)N%10CC[C@@H](F)C%10)c9F)c8c7)cn6)CC5)C4)ccc3C2=O)C(=O)N1 (stereo partly drawn) [Compound 194, (3R)-N-{3-[5-(2-{[1-({1-[2-(2,6-dioxopiperidin-3-yl)-1-oxo-2,3-dihydro-1H-isoindol-5-yl]azetidin-3-yl}methyl)piperidin-4-yl]methyl}pyrimidin-5-yl)-1H-pyrrolo[2,3-b]pyridine-3-carbonyl]-2,4-difluorophenyl}-3-fluoropyrrolidine-1-sulfonamide]
1 to 10	5 to 50	35 to 70	35 to 70	CN(CCN1CCN(c2ccc(-c3cnc4[nH]cc(C(=O)c5c(F)ccc(NS(=O)(=O)N6CC[C@@H](F)C6)c5F)c4c3)cc2)CC1)[C@H]1CC[C@H](Oc2ccc3c(c2)CN(C2CCC(=O)NC2=O)C3=O)CC1 (stereo partly drawn) [Compound 195, (3R)-N-[2,4-difluoro-3-(5-{4-[4-(2-{methyl[(1r,4r)-4-{[2-(2,6-dioxopiperidin-3-yl)-1-oxo-2,3-dihydro-1H-isoindol-5-yl]oxy}cyclohexyl]amino}ethyl)piperazin-1-yl]phenyl}-1H-pyrrolo[2,3-b]pyridine-3-carbonyl)phenyl]-3-fluoropyrrolidine-1-sulfonamide]

Further lines, the compound ahead of its results:

SMILES	DC50 [1] [nM]	DC50 [2] [nM]	Dmax [2] [%]	Dmax [1] [%]
CC1(N2Cc3cc(C4CCN(CC5CCN(c6ccc(-c7cnc8[nH]cc(C(=O)c9c(F)ccc(NS(=O)(=O)N%10CC[C@@H](F)C%10)c9F)c8c7)cc6)CC5)CC4)ccc3C2=O)CCC(=O)NC1=O (stereo partly drawn) [Compound 183, (3R)-N-[2,4-difluoro-3-(5-{4-[4-({4-[2-(3-methyl-2,6-dioxopiperidin-3-yl)-1-oxo-2,3-dihydro-1H-isoindol-5-yl]piperidin-1-yl}methyl)piperidin-1-yl]phenyl}-1H-pyrrolo[2,3-b]pyridine-3-carbonyl)phenyl]-3-fluoropyrrolidine-1-sulfonamide]	> 30	50 to 500	< 35	–
COc1cc(C2CCN(CC3CCN(c4ccc(-c5cnc6[nH]cc(C(=O)c7c(F)ccc(NS(=O)(=O)N8CC[C@@H](F)C8)c7F)c6c5)cc4)CC3)CC2)ccc1C(=O)NC1CCC(=O)NC1=O (stereo partly drawn) [Compound 184, 4-(1-{[1-(4-{3-[2,6-difluoro-3-({[(3R)-3-fluoropyrrolidin-1-yl]sulfonyl}amino)benzoyl]-1H-pyrrolo[2,3-b]pyridin-5-yl}phenyl)piperidin-4-yl]methyl}piperidin-4-yl)-N-(2,6-dioxopiperidin-3-yl)-2-methoxybenzamide]	1 to 10	5 to 50	< 35	35 to 70
COc1cc([C@H](O)CCN2CCN(c3ccc(-c4cnc5[nH]cc(C(=O)c6c(F)ccc(NS(=O)(=O)N7CC[C@@H](F)C7)c6F)c5c4)cc3)CC2)cc2c1C(=O)N([C@H]1CCC(=O)NC1=O)C2 [Compound 186, (3R)-N-{3-[5-(4-{4-[(3R)-3-{2-[(3S)-2,6-dioxopiperidin-3-yl]-7-methoxy-1-oxo-2,3-dihydro-1H-isoindol-5-yl}-3-hydroxypropyl]piperazin-1-yl}phenyl)-1H-pyrrolo[2,3-b]pyridine-3-carbonyl]-2,4-difluorophenyl}-3-fluoropyrrolidine-1-sulfonamide]	1 to 10	50 to 500	35 to 70	> 70
COc1cc([C@H](O)CCN2CCN(c3ccc(-c4cnc5[nH]cc(C(=O)c6c(F)ccc(NS(=O)(=O)N7CC[C@@H](F)C7)c6F)c5c4)cc3)CC2)cc2c1C(=O)N([C@@H]1CCC(=O)NC1=O)C2 [Compound 187, (3R)-N-{3-[5-(4-{4-[(3R)-3-{2-[(3R)-2,6-dioxopiperidin-3-yl]-7-methoxy-1-oxo-2,3-dihydro-1H-isoindol-5-yl}-3-hydroxypropyl]piperazin-1-yl}phenyl)-1H-pyrrolo[2,3-b]pyridine-3-carbonyl]-2,4-difluorophenyl}-3-fluoropyrrolidine-1-sulfonamide]	1 to 10	50 to 500	35 to 70	> 70
O=C1CCC(N2Cc3cc(C4CCN(C[C@H]5C[C@H]6CC[C@@H](C5)N6c5ccc(-c6cnc7[nH]cc(C(=O)c8c(F)ccc(NS(=O)(=O)N9CC[C@@H](F)C9)c8F)c7c6)cc5)CC4)ccc3C2=O)C(=O)N1 (stereo partly drawn) [Compound 188, (3R)-N-[3-(5-{4-[(1R,3R,5S)-3-({4-[2-(2,6-dioxopiperidin-3-yl)-1-oxo-2,3-dihydro-1H-isoindol-5-yl]piperidin-1-yl}methyl)-8-azabicyclo[3.2.1]octan-8-yl]phenyl}-1H-pyrrolo[2,3-b]pyridine-3-carbonyl)-2,4-difluorophenyl]-3-fluoropyrrolidine-1-sulfonamide]	1 to 10	5 to 50	35 to 70	> 70
O=C1CCC(c2ccc(C3CCN(CC4CCN(c5ccc(-c6cnc7[nH]cc(C(=O)c8c(F)ccc(NS(=O)(=O)N9CC[C@@H](F)C9)c8F)c7c6)cc5)CC4)CC3)cc2)C(=O)N1 (stereo partly drawn) [Compound 189, (3R)-N-[3-(5-{4-[4-({4-[4-(2,6-dioxopiperidin-3-yl)phenyl]piperidin-1-yl}methyl)piperidin-1-yl]phenyl}-1H-pyrrolo[2,3-b]pyridine-3-carbonyl)-2,4-difluorophenyl]-3-fluoropyrrolidine-1-sulfonamide]	< 1	5 to 50	35 to 70	35 to 70
CCN(C)S(=O)(=O)Nc1ccc(F)c(C(=O)c2c[nH]c3ncc(-c4ccc(N5CCC(CN6CCC(c7ccc8c(c7)CN(C7CCC(=O)NC7=O)C8=O)CC6)CC5)cc4)cc23)c1F (stereo not shown) [Compound 191, 3-(5-{1-[(1-{4-[3-(3-{[ethyl(methyl)sulfamoyl]amino}-2,6-difluorobenzoyl)-1H-pyrrolo[2,3-b]pyridin-5-yl]phenyl}piperidin-4-yl)methyl]piperidin-4-yl}-1-oxo-2,3-dihydro-1H-isoindol-2-yl)piperidine-2,6-dione]	< 1	5 to 50	35 to 70	> 70
O=C1CC[C@H](NC(=O)c2cc(C3CCN(CC4CCN(c5ccc(-c6cnc7[nH]cc(C(=O)c8c(F)ccc(NS(=O)(=O)N9CC[C@@H](F)C9)c8F)c7c6)cc5)CC4)CC3)ccc2F)C(=O)N1 [Compound 196, 5-(1-{[1-(4-{3-[2,6-difluoro-3-({[(3R)-3-fluoropyrrolidin-1-yl]sulfonyl}amino)benzoyl]-1H-pyrrolo[2,3-b]pyridin-5-yl}phenyl)piperidin-4-yl]methyl}piperidin-4-yl)-N-[(3S)-2,6-dioxopiperidin-3-yl]-2-fluorobenzamide]	1 to 10	5 to 50	35 to 70	35 to 70
